According to US11633402B2, “RET inhibitor” (CHUGAI SEIYAKU KABUSHIKI KAISHA, priority 2012, dated 2023):

How the values were obtained:
[1] = system: cell lines expressing KIF5B-RET; conditions: J Clin Oncol 30, 2012, suppl; Abstract no: 7510; cited from earlier work
[2] = system: LC-2/ad-implanted mouse models; test: Antitumor activity in xenograft mouse model harboring CCDC6-RET fusion gene; format: in vivo; conditions: SCID mice, oral once a day 20 mg/kg or 60 mg/kg for 14 days
From the text: LC-2/ad was subcutaneously implanted to SCID mice and randomized after tumor size reached 200 to 350 mm^3. The administration of the compound was started on the day of randomization. The vehicles used for dissolving the compound were 0.02 N HCl, 10% dimethyl sulfoxide. 10% Cremophor EL, 15% PEG400 and 15% HPCD (2-hydroxypropyl-β-cyclodextrin) (indicated by final concentration).

[3] = system: TT cells (RET C634W); test: Cell growth inhibitory activity against thyroid medullary cancer cell line TT (CellTiter-Glo); format: cell-based; conditions: Homo sapiens, 120 h, read-out: cell growth inhibition IC50 value, TT cells
Protocol: Cell growth inhibitory activity was evaluated using a thyroid medullary cancer cell line TT (American Type Culture Collection) with a RET kinase active mutation (C634W).
The TT cells were seeded into a 96-well plate at a concentration of 5,000 cells/well in F-12K Nutrient Mixture (Life Technologies Corporation) containing 10% FBS and cultured overnight at 37° C. in the presence of 5% CO2. […] Dimethyl sulfoxide was added as a negative control. After culture at 37° C. for 5 days in the presence of 5% CO2. a cell counting reagent CellTiter-Glo® Luminescent Cell Viability Assay was added thereto and stirred, followed by the measurement of luminescence intensity using a luminescence measurement apparatus Envision. The measurement value in a well supplemented with only a medium was defined as a cell viability of 0%, while the measurement value in a well supplemented with dimethyl sulfoxide was defined as a survival rate of 100%. […] The IC50 value was determined from the obtained values by the logistic regression method.

[4] = system: LC-2/ad cells (CCDC6-RET fusion gene); test: Cell growth inhibitory activity against non-small cell lung cancer cell line LC-2/ad (CellTiter-Glo); format: cell-based; conditions: Homo sapiens, 120 h, read-out: cell growth inhibition IC50 value, LC-2/ad cells
Protocol: Cell growth inhibitory activity was evaluated using a non-small cell lung cancer cell line LC-tad (R1KEN, J Thorac Oncol. 2012 December, 7 (12), 1872-6) harboring CCDC6-RET fusion gene.
The LC-2/ad cells were seeded into a 96-well plate at a concentration of 2,000 cells/well in a medium of a 1:1 mixture of RPMI-1640 and Ham containing 15% FBS and 25 mM HEPES and cultured overnight at 37° C. in the presence of 5% CO2. […] Dimethyl sulfoxide was added as a negative control. After culture at 37° C. for 5 days in the presence of 5% CO2, a cell counting reagent CellTiter-Glo® Luminescent Cell Viability Assay was added thereto and stirred, followed by the measurement of luminescence intensity using a luminescence measurement apparatus Envision. The measurement value in a well supplemented with only a medium was defined as a cell viability of 0%, while the measurement value in a well supplemented with dimethyl sulfoxide was defined as a cell viability of 100%. […] The IC50 value was determined from the obtained values by the logistic regression method.

[5] = system: Ba/F3 KIF5B-RET cells; test: Cell growth inhibitory activity against KIF5B-RET-expressing Ba/F3 cells (CellTiter-Glo); format: cell-based; conditions: Mus musculus, BaF3, 48 h; read-out: cell growth inhibition IC50 value, Ba/F3 KIF5B-RET cells
Protocol: An expression plasmid CS-GS104J-M67 (GeneCopoeia) containing KIF5B-RET variant 1 (gene in which a region from the N-terminus of KIF5B CDS to exon 15 was fused with a region from exon 12 of RET CDS to the C-terminus) (SEQ ID NO: 5) was transfected into mouse lymphocytes Ba/F3 (RIK FN Cell Bank) by electroporation. After transfection, the cells were cultured overnight in an RPMI-1640 medium (Sigma-Aldrich) containing 10% FBS (Bovogen Biologicals) and 1 ng/mL recombinant mouse IL-3 (R&D systems). Then, the culture supernatant was replaced with an RPMl-1640 medium containing 10% LBS. The cells were seeded into a 96-well plate by the limiting dilution method. Approximately 2 weeks later, the expression of phosphorylated RET in cells grown in the absence of IL-3 was detected by Western blotting. […]
The Ba/F3 KIF5B-RET cells were seeded into a 96-well plate at a concentration of 2,500 cells/well in an RPMI-1640 medium containing 10% FBS. […] After culture at 37° C. for 2 days in the presence of 5% CO2, a cell counting reagent CellTiter-Glo® Luminescent Cell Viability Assay (Pronged Corporation) was added thereto and stirred, followed by the measurement of luminescence intensity using a luminescence measurement apparatus Envision (PerkinElmer). […] The IC50 value was determined from the obtained values by the logistic regression method.

[6] = system: KIF5B-RET-expressing cells; conditions: Nature Medicine 2012, 18, p. 378-381; cited from earlier work
[7] = target: RET (Homo sapiens, UniProt P07949); conditions: high concentration (1,000 nM); Cancer Cell 19(5) 679-690, 2011; cited from earlier work
Chain of RET (P07949 29-1114): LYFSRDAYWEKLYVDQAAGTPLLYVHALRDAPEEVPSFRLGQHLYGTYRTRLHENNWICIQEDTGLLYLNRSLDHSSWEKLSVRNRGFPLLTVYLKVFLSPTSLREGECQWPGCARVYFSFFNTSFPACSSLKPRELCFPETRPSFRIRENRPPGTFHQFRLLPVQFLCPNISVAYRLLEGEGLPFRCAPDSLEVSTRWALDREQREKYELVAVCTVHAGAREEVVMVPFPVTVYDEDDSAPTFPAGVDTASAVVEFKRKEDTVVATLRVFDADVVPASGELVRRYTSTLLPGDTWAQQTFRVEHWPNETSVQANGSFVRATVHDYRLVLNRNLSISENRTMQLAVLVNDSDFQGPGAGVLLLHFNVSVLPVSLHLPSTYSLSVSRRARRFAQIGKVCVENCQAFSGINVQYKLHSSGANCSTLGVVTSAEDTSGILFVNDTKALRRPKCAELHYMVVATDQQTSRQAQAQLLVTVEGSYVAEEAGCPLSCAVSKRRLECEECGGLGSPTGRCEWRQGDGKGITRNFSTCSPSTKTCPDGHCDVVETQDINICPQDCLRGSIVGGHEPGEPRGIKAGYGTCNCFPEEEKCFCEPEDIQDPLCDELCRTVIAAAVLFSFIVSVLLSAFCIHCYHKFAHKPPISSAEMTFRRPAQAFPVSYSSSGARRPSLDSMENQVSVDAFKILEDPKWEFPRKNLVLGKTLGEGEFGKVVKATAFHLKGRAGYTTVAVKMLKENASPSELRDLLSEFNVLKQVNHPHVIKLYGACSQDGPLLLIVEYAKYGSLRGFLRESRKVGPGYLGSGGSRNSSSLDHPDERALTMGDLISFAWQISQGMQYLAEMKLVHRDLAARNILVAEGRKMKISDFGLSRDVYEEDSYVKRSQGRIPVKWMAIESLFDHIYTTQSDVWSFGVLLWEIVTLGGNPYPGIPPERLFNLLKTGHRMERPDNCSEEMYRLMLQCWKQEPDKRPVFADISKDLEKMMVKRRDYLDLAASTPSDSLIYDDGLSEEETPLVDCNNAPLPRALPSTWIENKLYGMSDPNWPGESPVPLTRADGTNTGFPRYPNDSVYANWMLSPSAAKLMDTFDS

## COc1cc2nccc(Oc3ccc(NC(=O)C4(C(=O)Nc5ccc(F)cc5)CC4)cc3)c2cc1OC [XL184]
[1]
  cell growth inhibitory effect against cell lines expressing KIF5B-RET: cell growth inhibitory effect

## CCc1cc2c(cc1N1CCC(N3CCOCC3)CC1)C(C)(C)c1[nH]c3cc(C#N)ccc3c1C2=O [compound 1, 9-ethyl-6,6-dimethyl-8-(4-morpholin-4-yl-piperidin-1-yl)-11-oxo-6,11-dihydro-5H-benzo[b]carbazole-3-carbonitrile]
[2]; LC-2/ad subcutaneous
  antitumor activity (tumor growth): dose-dependent tumor growth inhibitory effect and tumor regression
[2]
  body weight loss: significant body weight loss of a mouse was not observed
[3]
  IC50: 190 nM
[4]
  IC50: 190 nM
[5]
  IC50: 86 nM

## C[C@@H](Oc1cc(-c2cnn(C3CCNCC3)c2)cnc1N)c1c(Cl)ccc(F)c1Cl [crizotinih]
[6]
  cell growth inhibitory activity against KIF5B-RET-expressing cells: no cell growth inhibitory activity

## CCc1cc2c(cc1N1CCC(N3CCOCC3)CC1)C(C)(C)c1[nH]c3cc(C#N)ccc3c1C2=O [drawing 3]
[7]
  kinase inhibition in Ambit Kinase Screening test: inhibits many kinases including RET

## CNC(=O)c1cc(Oc2ccc(NC(=O)Nc3ccc(Cl)c(C(F)(F)F)c3)cc2)ccn1 [sorafenih]
[1]
  cell growth inhibitory effect against cell lines expressing KIF5B-RET: cell growth inhibitory effect
